Measurements from US10473645B2, “Methods for identifying a receptor for a ligand and uses thereof” (UNIVERSITE DE GENEVE, priority 2014, dated 2019).

Experiments:
Olfr160 = assay: OR transcript level by RT-qPCR after in vivo odorant exposure; design: species or system mouse; key to olfr160 candidate OR (RNAseq) confirmed by qPCR: The transcript downregulation of 21 out of the 26 olfactory receptor candidates obtained by RNAseq was confirmed by qPCR; false RNAseq positive candidates, namely OR candidates for which in fact mRNA was not downregulated following acetophenone exposure; details: for Olfr160 mRNA level relative to unexposed controls: 5% odorant, 5 hours, in vivo, RT-qPCR
Procedure: (§1) In vivo exposure to odorant: Starting 48 h before experiments, mice were habituated to pure DMSO on a cotton ball. 200 μl were pipetted directly onto the cotton and placed in the cage, replacing any cotton that was already in the cage for nest-making purposes.
(§2) On the day of the experiment, mice receiving odorants were transferred to a different room, where they were exposed to a cotton ball on which 200 μl of odorant diluted in pure DMSO were deposited. Exposures started in the morning between 8 and 10 am (that is two hours after lights were on) and mice were killed and dissected between 1 and 3 pm. […] If a number of different odorants were tested in the same experiment, a different overpressurized room would always be used for each odorant to avoid odor cross-contamination.
(§3) After odorant exposure, mice were killed by cervical dislocation and immediately decapitated. The main olfactory epithelia (MOE), were harvested in their entirety and transferred to a tube containing 600 μl of lysis buffer and β-mercaptoethanol (RNAeasy kit, Qiagen, following the manufacturer protocol) and a 0.5 cm diameter steel ball, and then put on ice. Samples were then homogenized using a FastPrep®-24 instrument (MP Biomedicals) at 6 m/s for 30 s and left on ice. RNA extraction was performed on all samples in parallel using the Qiagen RNeasy Mini® kit following the manufacturer's instructions. Two DNase treatments were performed on all samples: first using the Qiagen RNase-Free DNase Set® and then using the Life Technologies Ambion DNase I® kit. RNA samples were then aliquoted and stored at −80° C.
(§4) RNA concentrations were determined using an Amersham Ultrospec® 3100 Pro spectrophotometer, and RNA quality was evaluated with an Agilent Technologies 2100 Bioanalyzer®. […]
(§5) qPCR Ct values were analyzed using an in-house developed Microsoft Excel® macro file. […] Ct values were converted to quantities relative to the maximum for each given gene. Selected reference genes were then analyzed for variance using the geNorm algorithm. […]

Olfr730 = molecular target: T1, Olfr730 (Mus musculus, UniProt A0A0U1RNX7); assay: as above; details: 5% odorant, 5 hours
T1 construct: from tissue; host or cells: olfactory epithelium of adult C57BL/6 mice
T1 sequence (A0A0U1RNX7 1-317): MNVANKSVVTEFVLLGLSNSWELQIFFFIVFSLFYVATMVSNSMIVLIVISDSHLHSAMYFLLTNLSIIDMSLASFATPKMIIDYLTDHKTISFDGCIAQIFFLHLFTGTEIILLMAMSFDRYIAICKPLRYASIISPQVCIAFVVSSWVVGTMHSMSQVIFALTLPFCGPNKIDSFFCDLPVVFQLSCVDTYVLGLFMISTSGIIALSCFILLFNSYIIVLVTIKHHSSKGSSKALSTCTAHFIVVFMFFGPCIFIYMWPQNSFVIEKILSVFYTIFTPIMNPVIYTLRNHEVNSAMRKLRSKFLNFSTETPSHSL
Procedure: as §1
On the day of the experiment, mice receiving odorants were transferred to a different room, where they were exposed to a cotton ball on which 200 μl of odorant diluted in pure DMSO were deposited. Exposures started in the morning between 8 and 10 am (that is two hours after lights were on) and mice were killed and dissected between 1 and 3 pm. […]
as §4, §5
Adult C57BL/6 mice were exposed to 5% acetophenone for 5 hours, and the level of transcripts of odorant receptors' genes were measured by RT-qPCR on extracts of olfactory epithelia from these mice, as described in the materials and methods section.

olfr1135 = assay: as above; design: species or system mouse; key: The transcript downregulation of 21 out of the 26 olfactory receptor candidates obtained by RNAseq was confirmed by qPCR; false RNAseq positive candidates, namely OR candidates for which in fact mRNA was not downregulated following acetophenone exposure; details: 5% acetophenone exposure
Procedure: as §1, §2, §3
(§6) RNA concentrations were determined using an Amersham Ultrospec® 3100 Pro spectrophotometer, and RNA quality was evaluated with an Agilent Technologies 2100 Bioanalyzer®. Each reverse transcription was performed with 0.5 μg RNA using the Takara Primescript® kit, in a final volume of 10 μl. Primers for reverse transcription were equal mixtures of poly-T nucleotides and random hexamers. Negative controls (omitting the reverse transcriptase enzyme) were performed for each sample. 1/14th of the cDNA preparation was used for each triplicated qPCR reaction.
(§7) qPCR Ct values were analyzed using an in-house developed Microsoft Excel® macro file. Triplicate values were compared and outliers (values with a difference higher than 0.5 Ct to their nearest neighbor) were discarded. The number of conditions with an outlying value was always less than 10% of the total number of conditions. Ct values were converted to quantities relative to the maximum for each given gene. Selected reference genes were then analyzed for variance using the geNorm algorithm. All values were normalized with the olfactory tissue-specific genes Omp and Adcy3. β-Actin was used as a non-tissue-specific reference gene to control for differences in dissection between samples.
(§8) Mice (n=6) were exposed to 5% acetophenone or to a “neutral” control condition for 5 hours. An olfactory cDNA library corresponding to each animal was deep sequenced and the ratios of odorant receptor mRNA concentrations relative to controls were plotted (FIG. 3). […] Based on transcriptional downregulation levels observed by RNAseq following acetophenone exposure, a list of 26 candidate responsive ORs was determined (FIG. 3), that reached 74% decrease (Olfr145) or even over 80% (Olfr169) relative to controls. […] The transcript downregulation of 21 out of the 26 olfactory receptor candidates obtained by RNAseq was confirmed by qPCR.

olfr1448 = assay: as above; design: species or system mouse; key: The transcript downregulation of 21 out of the 26 olfactory receptor candidates obtained by RNAseq was confirmed by qPCR; false RNAseq positive candidates, namely OR candidates for which in fact mRNA was not downregulated following acetophenone exposure; details: 5% acetophenone exposure
Procedure: as §1, §2, §3, §6, §7, §8

Olfr1377 = details: expressed in HEK cells; previously shown; read-out: EC50 as agonist of Olfr1377; cited from earlier work
Olfr556 = molecular target: T2, Olfr556 (Mus musculus, UniProt B2RRG2); assay: OR transcript downregulation by RNAseq after in vivo exposure; design: from tissue; host or cells: main olfactory epithelium of exposed mice; details: 5% odorant, 5 hours, reduction larger than 20% = downregulated
T2 sequence (B2RRG2 1-324): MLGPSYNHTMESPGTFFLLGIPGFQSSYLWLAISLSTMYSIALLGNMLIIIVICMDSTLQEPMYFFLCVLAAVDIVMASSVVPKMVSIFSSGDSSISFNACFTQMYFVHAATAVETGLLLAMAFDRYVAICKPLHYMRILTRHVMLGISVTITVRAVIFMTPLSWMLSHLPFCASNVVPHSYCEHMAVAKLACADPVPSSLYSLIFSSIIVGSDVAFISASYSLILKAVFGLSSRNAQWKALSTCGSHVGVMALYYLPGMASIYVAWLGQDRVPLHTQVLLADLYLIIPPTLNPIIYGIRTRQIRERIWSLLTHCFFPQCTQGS
Procedure: Animals were exposed to 5% acetophenone for 5 hours before RNA extraction (as previously described). cDNA libraries were generated with the Truseq RNA and DNA sample preparation kits after selection of polyA-containing mRNAs. Adapters for RNAseq multiplexing were added to the cDNAs. The cDNA libraries were sequenced with a HiSeq®2500 Sequencing system. 100 bp reads were mapped using Bowtie2 with a 28 bp seed. The differential gene expression analyses were performed with DESeq2. Because of the high sequence similarity between OR gene paralogs, some reads are mapped to multiple OR genes. These reads were removed from the analysis.
as §8

CC(=O)c1ccccc1 [acetophenone]
olfr160 candidate OR (RNAseq) confirmed by qPCR (Olfr160; 5% acetophenone exposure): y | Olfr160 mRNA level relative to unexposed controls (Olfr160): decrease | Olfr160 mRNA level relative to unexposed controls (Olfr160; listed as Acetophenone): downregulates | Olfr730 mRNA concentration increase, fold change (Olfr730): 1.4 fold | olfr1135 candidate OR (RNAseq) confirmed by qPCR (olfr1135): n | olfr1448 candidate OR (RNAseq) confirmed by qPCR (olfr1448): y | EC50 (Olfr1377): < 50 µM | Olfr556 transcript modulation (RNAseq) (Olfr556): downregulated
